Source: patent publication US5709816A, “Singlet oxygen quenchers and external compositions containing the same” (Kao Corporation, priority 1899, dated 1998)

Tests used:
skin of hairless mice [1] = experiment: Inhibition of wrinkle formation in hairless mice (visual wrinkle index); type: in vivo, hairless mouse (HR/ICR); settings: 5 wt. % in ethanol, 80 μl; UV-B five times per week, sixteen weeks; scale 1 (no wrinkles) to 4; control (ethanol) 3.78 ± 0.08
Experimental: (1) Inhibition of wrinkle formation in hairless mice.
(§1) To each hairless mouse (HR/ICR, 6 weeks old when the test started), a test substance (5 wt. %, in ethanol) was applied. (80 μl). Approximately 10 minutes later, UV-B was irradiated thereto using 6 bulbs of health lamps (SL20-SLE, Toshiba) so that the dose per irradiation was not greater than 1 MED. Irradiation was repeated five times per week over sixteen weeks. While the irradiation energy was measured using a UV-radiometer (UVR-305/S65D, Tokyo Optical K.K.) so that the dose per irradiation was not greater than 1 MED, energy was irradiated at an intensity of 0.28 mW/cm^2, with the total dose. 100 mJ/cm^2. As a control, a case where only ethanol was applied was similarly tested in a manner performed on the test substances.
After completion of the testing, the level of wrinkle formation was visually determined using the following standards (wrinkle indices).
1: No wrinkles are formed
2: Small amounts of wrinkles are formed
3: Moderate amounts of wrinkles are formed
4: Considerable amounts of wrinkles are formed

skin of hairless mice [2] = experiment: Analysis of wrinkles in hairless mice (image analysis of skin replicas); type: in vivo, hairless mouse (HR/ICR); settings: 5 wt. % in ethanol, 80 μl; UV-B sixteen weeks; shadow area of skin replicas, 30°; control (ethanol) 6.46 ± 0.68
Experimental: as §1
In order to analyze the wrinkles formed in the above step (1) in detail, replicas of different skin areas (3 replicas per mouse) each having a round shape with a diameter of 1 cm were obtained using a hydrophilic exaflex, hydrophilic vinyl silicone imaging agent. Each replica was placed horizontally and lightened from an angle of 30°. The area of shadows formed by wrinkles was analyzed as the area ratio using an image analyzing apparatus.

SMILES	Wrinkle index (skin of hairless mice [1])	Area ratio of image analysis (skin of hairless mice [2]) [%]
COc1ccc(N(Cc2ccc(C)o2)Cc2ccc(C)o2)cc1 [Compound (26), N,N-bis(5-methylfurfuryl)-p-methoxyphenylamine]	2.44 ± 0.33	3.69 ± 0.59
COc1ccc(N(Cc2ccc(C)o2)Cc2ccc(C)o2)cc1OC [Compound (27), N,N-bis(5-methylfurfuryl)-3,4-dimethoxyphenylamine]	2.22 ± 0.17	3.73 ± 0.29
CCOC(=O)CN(Cc1ccco1)Cc1ccco1 [Compound (24), ethyl N,N-bisfurfurylglycine]	2.56 ± 0.08	3.27 ± 0.29
Cc1ccc(CN(Cc2ccc(C)o2)c2ccccc2)o1 [Compound (25), N,N-bis(5-methylfurfuryl)phenylamine]	2.35 ± 0.34	3.32 ± 0.21
CCCCN(Cc1ccco1)Cc1ccco1 [Compound (22), N,N-bisfurfurylbutylamine]	2.34 ± 0.16	3.37 ± 0.30
CCCCC(CC)CN(Cc1ccco1)Cc1ccco1 (centres unmarked) [Compound (23), N,N-bisfurfuryl-2-ethylhexylamine]	2.17 ± 0.05	3.23 ± 0.18
CC(=O)Oc1c(C)c(C)c2c(c1C)CCC(C)(CCCC(C)CCCC(C)CCCC(C)C)O2 (stereo not drawn) [α-Tocopheryl acetate, reference compound]	3.28 ± 0.23	4.67 ± 0.48
COc1ccc(N(Cc2ccco2)Cc2ccc(C)o2)cc1 [Compound (31), N-furfuryl-N-(S-methylfurfuryl)-4-methoxyphenylamine]	2.49 ± 0.20	3.30 ± 0.17
COc1cc(N(Cc2ccc(C)o2)Cc2ccc(C)o2)cc(OC)c1OC [Compound (28), N,N-bis(5-methylfurfuryl)-3,4,5-trimethoxyphenylamine]	2.43 ± 0.06	3.24 ± 0.33
Cc1ccc(CN(Cc2ccc(C)o2)c2ccccc2C)o1 [Compound (30), N,N-bis(5-methylfurfuryl)-2-methylphenylamine]	2.51 ± 0.43	3.39 ± 0.47
